Measurements published in article PMC12165799, “Antimicrobial peptide developed with machine learning sequence optimization targets drug resistant Staphylococcus aureus in mice” (The Journal of Clinical Investigation, 2025).

Assays:
S. aureus MW2 = assay: RNAseq differential gene expression; assay type: cell-based, Staphylococcus aureus; conditions: 0.5× MIC, 30 min
Protocol: 553 For RNAseq studies, we followed the recommended procedure by Novogene (Sacramento,
554 CA, USA) (22). In brief, we used exponential cultures of S. aureus MW2 grown in TSB medium
555 adjusted to OD600=0.4. We treated 10 ml of the bacterial culture with 0.5× MIC of CIT-8 or water
556 (as a negative control) for 30 min at 37°C (180 rpm). After that, we washed the bacteria three times
557 with PBS and stored the pellet at -80°C. We isolated total RNA from the pellet and checked the
558 purity using the NanoPhotometer® spectrophotometer (Implen, CA, USA). We assessed RNA
559 integrity and concentration using the RNA Nano 6000 Assay Kit following manufacturer
560 instructions in a Bioanalyzer 2100 system (Agilent Technologies, CA, USA). We evaluated RNA
561 degradation and contamination on 1% agarose gels. To prepare libraries for transcriptome
562 sequencing, we used 1 µg RNA per sample as input material and generated sequencing libraries
563 using NEBNext® UltraTM RNA Library Prep Kit for Illumina® (NEB, MA, USA) following
564 manufacturer’s recommendations and added index codes to attribute sequences to each sample.
565 Briefly, we purified mRNA from total RNA using poly-T oligo-attached magnetic beads, followed
566 by fragmentation using divalent cations under elevated temperature in NEBNext First Strand
567 Synthesis Reaction Buffer (5×). To synthesize cDNA, we used random hexamer primers and M-
568 MuLV Reverse Transcriptase (RNase H-) to create the first strand, followed by DNA Polymerase
569 I and RNase H to create the second strand (23). The remaining overhangs were converted into
570 blunt ends using exonuclease/polymerase activities. We adenylated the 3’ ends of the DNA
571 fragments, and further ligated NEBNext Adaptors with hairpin loop structures to prepare for
572 hybridization. To select cDNA fragments of preferred length (150-200 bp), we purified the whole
573 library fragments with AMPure XP system (Beckman Coulter, CA, USA). Next, to the size-
574 selected, adaptor ligated cDNA, we added 3 µl USER Enzyme (NEB, MA, USA) at 37°C for 15
575 min followed by 5 min at 95°C before carrying out the polymerase chain reaction (PCR). We
576 performed the PCR with Phusion High-Fidelity DNA polymerase, Universal PCR primers, and
577 Index (X) Primer. Finally, we purified the PCR products with an AMPure XP system (Beckman
578 Coulter, CA, USA) and library quality was assessed on the Agilent Bioanalyzer 2100 system
579 (Agilent Technologies, CA, USA). […]

[1] = tested on: S. aureus MW2 infected skin; assay: Histopathology of skin (H&E, Gram stain), prophylactic model; assay type: in vivo, mice; conditions: 2% w/w formulation, H&E and Gram stains
From the text: 235 Supplemental Figure 13. Histopathology of vehicle and CIT-8 treated skin in the skin-abraded
236 prophylactic murine model infected with S. aureus MW2.
237 Panel A: Representative 10× images of H&E-stained murine skin sections from all n=32 animals
238 (n=8 per group). Scale bars: 0.05 mm. Panel B: Representative 40× images of Gram-stained murine
239 skin sections. Scale bars: 0.01 mm. White arrows (1-5) indicate key histopathological features; 1:
240 Disorganized epidermal layer with epidermal disruption; 2: Dense infiltration of
241 polymorphonuclear (PMN) and mononuclear (MN) cells in both the epidermis and dermis,
242 indicative of heightened inflammation; 3: More intact epidermis; 4: Reduced numbers of PMN
243 and MN cells; 5: Bacterial patches.
(1 picture or pasted object on this page, not shown here)

**Q.** What does the source list for H-GLFKVIKKLLKVI-NH2 [CIT-8]?
**A.** Downregulation of tRNAGln (S. aureus MW2): 8.5 fold; Downregulation of tRNAarg (S. aureus MW2): 7.7 fold; Downregulation of tRNAcys (S. aureus MW2): 6.8 fold; Downregulation of tRNAser (S. aureus MW2): 8.4 fold; Upregulation of pdxS (S. aureus MW2): 5.3 fold; Upregulation of purH (S. aureus MW2): 3.6 fold; Upregulation of purL (S. aureus MW2): 5.2 fold; Upregulation of purQ (S. aureus MW2): 5.0 fold; Upregulation of purS (S. aureus MW2): 5.0 fold; Number of genes downregulated by at least 2-fold (S. aureus MW2; P < 0.05): 267 genes; Number of genes upregulated by more than 2-fold (S. aureus MW2; P < 0.05): 179 genes; Histopathology of treated skin [1]: more intact epidermis, reduced numbers of PMN and MN (less inflammation), and no bacterial biofilm patches
